Measured values from PubChem BioAssay (NCI).
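Interpolation was linear, between the two tested concentrations surrounding the appropriate level; five concentrations were tested over 48 hours in 96-well plates. GI50 is the concentration that inhibits growth by half. TGI marks complete inhibition of growth.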

Assays:
Experiment in all cases: growth of human tumour cells (NCI), 48 h
[1] = system: CCRF-CEM leukemia
[2] = system: MCF7 breast
[3] = system: MDA-MB-468 breast
[4] = system: COLO 205 colon
[5] = system: RXF 393 renal
[6] = system: HS 578T breast
[7] = system: MDA-MB-435
[8] = system: SK-MEL-28 melanoma
[9] = system: PC-3 prostate
[10] = system: OVCAR-5 ovarian
[11] = system: CAKI-1 renal
[12] = system: A549 NSCLC
[13] = system: SR leukemia
[14] = system: TK-10 renal
[15] = system: KM12 colon
[16] = system: U251 CNS
[17] = system: SK-OV-3 ovarian
[18] = system: SF-539 CNS
[19] = system: NCI-H226 lung
[20] = system: NCI-H460 lung
[21] = system: HT29 colon
[22] = system: RPMI-8226 leukemia
[23] = system: DU-145 prostate
[24] = system: T-47D breast
[25] = system: MDA-MB-231 breast
[26] = system: SNB-19 CNS
[27] = system: UO-31 renal
[28] = system: IGROV1 ovarian
[29] = system: MALME-3M melanoma
[30] = system: SW-620 colon
[31] = system: SF-268 CNS
[32] = system: BT-549 breast
[33] = system: NCI-H522 lung
[34] = system: HCT-15 colon
[35] = system: HOP-62 NSCLC
[36] = system: SK-MEL-2 melanoma
[37] = system: OVCAR-3 ovarian
[38] = system: NCI-H23 lung
[39] = system: SK-MEL-5 melanoma
[40] = system: SN12C renal
[41] = system: HCC-2998 colon
[42] = system: UACC-62 melanoma
[43] = system: LOX IMVI melanoma
[44] = system: ACHN renal
[45] = system: NCI/ADR-RES ovarian
[46] = system: M14 melanoma
[47] = system: OVCAR-8 ovarian
[48] = system: MOLT-4 leukemia
[49] = system: HL-60(TB) leukemia
[50] = system: HCT-116 colon
[51] = system: A498 renal
[52] = system: HOP-92 NSCLC
[53] = system: K-562 leukemia
[54] = system: UACC-257 melanoma
[55] = system: OVCAR-4 ovarian
[56] = system: SF-295 CNS
[57] = system: EKVX NSCLC
[58] = system: 786-0 renal
[59] = system: SNB-75 CNS

O=C(N=Nc1c(O)[nH]c2ccc(Br)cc12)c1ccc2nc(-c3ccc(Cl)cc3)[nH]c2c1
GI50 [1]: 8.77 µM | TGI [1]: > 38 µM | GI50 [2]: 8.14 µM | TGI [2]: > 38 µM | GI50 [3]: 8.03 µM | TGI [3]: 37.9 µM | GI50 [4]: 26.2 µM | TGI [4]: > 38 µM | GI50 [5]: > 38 µM | TGI [5]: > 38 µM | GI50 [6]: > 38 µM | TGI [6]: > 38 µM | GI50 [7]: 29.6 µM | TGI [7]: > 38 µM | GI50 [8]: > 38 µM | TGI [8]: > 38 µM | GI50 [9]: > 38 µM | TGI [9]: > 38 µM | GI50 [10]: > 38 µM | TGI [10]: > 38 µM | GI50 [11]: > 38 µM | TGI [11]: > 38 µM | GI50 [12]: > 38 µM | TGI [12]: > 38 µM | GI50 [13]: > 38 µM | TGI [13]: > 38 µM | GI50 [14]: > 38 µM | TGI [14]: > 38 µM | GI50 [15]: > 38 µM | TGI [15]: > 38 µM | GI50 [16]: 19.9 µM | TGI [16]: > 38 µM | GI50 [17]: > 38 µM | TGI [17]: > 38 µM | GI50 [18]: > 38 µM | TGI [18]: > 38 µM | GI50 [19]: > 38 µM | TGI [19]: > 38 µM | GI50 [20]: 21.7 µM | TGI [20]: > 38 µM | GI50 [21]: 15.2 µM | TGI [21]: > 38 µM | GI50 [22]: > 38 µM | TGI [22]: > 38 µM | GI50 [23]: 29.6 µM | TGI [23]: > 38 µM | GI50 [24]: 11.8 µM | TGI [24]: > 38 µM | GI50 [25]: > 38 µM | TGI [25]: > 38 µM | GI50 [26]: 17.1 µM | TGI [26]: > 38 µM | GI50 [27]: > 38 µM | TGI [27]: > 38 µM | GI50 [28]: > 38 µM | TGI [28]: > 38 µM | GI50 [29]: > 38 µM | TGI [29]: > 38 µM | GI50 [30]: 14.5 µM | TGI [30]: > 38 µM | GI50 [31]: 10.8 µM | TGI [31]: > 38 µM | GI50 [32]: > 38 µM | TGI [32]: > 38 µM | GI50 [33]: > 38 µM | TGI [33]: > 38 µM | GI50 [34]: > 38 µM | TGI [34]: > 38 µM | GI50 [35]: > 38 µM | TGI [35]: > 38 µM | GI50 [36]: > 38 µM | TGI [36]: > 38 µM | GI50 [37]: > 38 µM | TGI [37]: > 38 µM | GI50 [38]: 34 µM | TGI [38]: > 38 µM | GI50 [39]: > 38 µM | TGI [39]: > 38 µM | GI50 [40]: > 38 µM | TGI [40]: > 38 µM | GI50 [41]: 32.6 µM | TGI [41]: > 38 µM | GI50 [42]: > 38 µM | TGI [42]: > 38 µM | GI50 [43]: 11.3 µM | TGI [43]: > 38 µM | GI50 [44]: > 38 µM | TGI [44]: > 38 µM | GI50 [45]: > 38 µM | TGI [45]: > 38 µM | GI50 [46]: > 38 µM | TGI [46]: > 38 µM | GI50 [47]: 29.7 µM | TGI [47]: > 38 µM | GI50 [48]: 11.1 µM | TGI [48]: > 38 µM | GI50 [49]: > 38 µM | TGI [49]: > 38 µM | GI50 [50]: 15.2 µM | TGI [50]: > 38 µM | GI50 [51]: > 38 µM | TGI [51]: > 38 µM | GI50 [52]: > 38 µM | TGI [52]: > 38 µM | GI50 [53]: 16.8 µM | TGI [53]: > 38 µM | GI50 [54]: > 38 µM | TGI [54]: > 38 µM | GI50 [55]: 12 µM | TGI [55]: > 38 µM | GI50 [56]: > 38 µM | TGI [56]: > 38 µM | GI50 [57]: > 38 µM | TGI [57]: > 38 µM | GI50 [58]: 29.6 µM | TGI [58]: > 38 µM | GI50 [59]: 8.44 µM | TGI [59]: > 38 µM
